Drawing on ChEMBL document CHEMBL3045960 (Pest Manag Sci, 2011), this text covers EC50 for three compounds.

This assay relates to Fusarium graminearum. The assay can be described thus: Fungicidal activity against Fusarium graminearum 2021 assessed as mycelial growth inhibition after 3 days. The class given is functional, organism-based. Conditions: Fusarium graminearum, 2021, 72 h.

Values after ≈ are worked out from the molar mass of the structure shown.

What is called EC50 is the concentration that produces a half-maximal response. Consider `c1ccc2[nH]c(-c3cscn3)nc2c1` [THIABENDAZOLE], for which the EC50 came to 1.13 µg/mL (≈ 5.61 µM).

As to `CCCCNC(=O)n1c(NC(=O)OC)nc2ccccc21` [BENOMYL], the EC50 worked out at 0.61 µg/mL (≈ 2.1 µM).

Turning to `COC(=O)NC(=S)Nc1ccccc1NC(=S)NC(=O)OC` [THIOPHANATE METHYL], the EC50 turned out to be 11 µg/mL (≈ 32.2 µM).
